According to patent US20230399312A1, “SUBSTITUTED PYRIMIDINES AND METHODS OF USE” (THERAVANCE BIOPHARMA R&D IP, LLC, priority 2020, published 2023):

Key:
[1] = test system: TGF-β-stimulated SMAD3 phosphorylation in BEAS-2B cells; test: Cellular ALK5 potency assay, inhibition of TGF-β stimulated pSMAD3 formation in BEAS-2B cells; format: cell-based; details: Homo sapiens, pSMAD3, TGF-β 10 ng/mL, read-out: BEAS2B pIC50 (converted)
Outline: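 Read-out is AlphaLISA detection of phospho-SMAD3 in lysates of BEAS-2B human lung epithelial cells. Cells are exposed to compound for 1 hour, then to 10 ng/mL TGF-β (final) for 30 minutes. Values are pIC50 from concentration–response curves.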

[2] = molecular target: T1, recombinant human ALK5 (TGF-βR1) protein (Homo sapiens, UniProt P36897); test: Biochemical ALK5 (TGF-βR1) assay to measure pKi (LANCE Ultra ULight kinase assay); details: apparent pKi, converted from pIC50 by Cheng-Prusoff
T1 construct: purchased Life Technologies PR9075A
T1 sequence (P36897 34-503): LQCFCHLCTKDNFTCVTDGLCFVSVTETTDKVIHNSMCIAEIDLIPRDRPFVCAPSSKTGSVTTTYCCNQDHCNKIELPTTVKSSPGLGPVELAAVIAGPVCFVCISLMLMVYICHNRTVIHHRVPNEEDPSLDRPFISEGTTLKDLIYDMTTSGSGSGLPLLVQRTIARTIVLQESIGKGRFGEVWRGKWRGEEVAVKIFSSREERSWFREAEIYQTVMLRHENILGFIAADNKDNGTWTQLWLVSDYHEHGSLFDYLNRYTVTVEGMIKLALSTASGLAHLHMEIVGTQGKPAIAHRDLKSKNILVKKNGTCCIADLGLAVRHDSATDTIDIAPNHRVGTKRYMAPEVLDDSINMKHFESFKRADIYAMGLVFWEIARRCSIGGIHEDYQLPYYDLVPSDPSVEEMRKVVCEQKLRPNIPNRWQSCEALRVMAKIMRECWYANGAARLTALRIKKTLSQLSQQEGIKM
Outline: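 Dose-response series of each compound were preincubated with the kinase for 60 minutes at room temperature. Phosphorylation proceeded for 60 minutes at 37 °C after ATP addition, was quenched with EDTA, and was detected with a europium anti-phospho-Thr1342 antibody by TR-FRET; pKi was calculated from pIC50.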

Row | SMILES | IC50 [1] [nM] | Ki [2] [nM]
1 | Cc1cccc(-c2nccc(Nc3ccnc(Nc4ccc(N5CCC(CNCc6ccccn6)CC5)cc4)n3)n2)n1 [Compound 219, N4-[2-(6-methyl-2-pyridyl)pyrimidin-4-yl]-N2-[4-[4-[(2-pyridylmethylamino)methyl]-1-piperidyl]phenyl]pyrimidine-2,4-diamine] | 25.1 to 158 | 0.0398 to 0.316
2 | Cc1cccc(-c2nccc(Nc3ccnc(Nc4ccc(N5CCC(C(=O)OC6CNC6)CC5)cc4)n3)n2)n1 [Compound 220, azetidin-3-yl 1-[4-[[4-[[2-(6-methyl-2-pyridyl)pyrimidin-4-yl]amino]pyrimidin-2-yl]amino]phenyl]piperidine-4-carboxylate] | 25.1 to 158 | 0.0398 to 0.316
3 | Cc1cccc(-c2nccc(Nc3ccnc(Nc4ccc(N5C6CCC5CNC6)cc4)n3)n2)n1 [Compound 221, N2-(4-(3,8-diazabicyclo[3.2.1]octan-8-yl)phenyl)-N4-(2-(6-methylpyridin-2-yl)pyrimidin-4-yl)pyrimidine-2,4-diamine] | 25.1 to 158 | 0.0398 to 0.316
4 | Cc1cccc(-c2nc(C)cc(Nc3ccnc(Nc4ccc(N5CCN(C)CC5)cc4)n3)n2)n1 [Compound 222, N4-[6-methyl-2-(6-methyl-2-pyridyl)pyrimidin-4-yl]-N2-[4-(4-methylpiperazin-1-yl)phenyl]pyrimidine-2,4-diamine] | 25.1 to 158 | 0.0398 to 0.316
5 | Cc1cccc(-c2nccc(Nc3ccnc(Nc4ccc5c(c4)CCN(C(C)C)CC5)n3)n2)n1 [Compound 223, N2-(3-isopropyl-2,3,4,5-tetrahydro-1H-benzo[d]azepin-7-yl)-N4-(2-(6-methylpyridin-2-yl)pyrimidin-4-yl)pyrimidine-2,4-diamine] | 25.1 to 158 | ≤ 0.0316
6 | Cc1cccc(-c2nccc(Nc3ccnc(Nc4ccc(CN5CCC[C@H](C(=O)O)C5)cc4)n3)n2)n1 [Compound 224, (3S)-1-[[4-[[4-[[2-(6-methyl-2-pyridyl)pyrimidin-4-yl]amino]pyrimidin-2-yl]amino]phenyl]methyl] piperidine-3-carboxylic acid] | 200 to 1260 | 0.0398 to 0.316
7 | Cc1cccc(-c2nccc(Nc3ccnc(Nc4ccc5c(c4)NCCC5)n3)n2)n1 [Compound 225, N4-[2-(6-methyl-2-pyridyl)pyrimidin-4-yl]-N2-(1,2,3,4-tetrahydroquinolin-7-yl)pyrimidine-2,4-diamine] | 25.1 to 158 | 0.0398 to 0.316
8 | Cc1cccc(-c2nccc(Nc3ccnc(Nc4nc(C)cs4)n3)n2)n1 [Compound 226, N4-[2-(6-methyl-2-pyridyl)pyrimidin-4-yl]-N2-(4-methylthiazol-2-yl)pyrimidine-2,4-diamine] | 25.1 to 158 | 3.98 to 31.6
9 | Cc1cccc(-c2nccc(Nc3ccnc(Nc4cccc(NC(=O)C5CCNC5)c4)n3)n2)n1 (stereo not shown) [Compound 227, N-[3-[[4-[[2-(6-methyl-2-pyridyl)pyrimidin-4-yl]amino]pyrimidin-2-yl]amino]phenyl]pyrrolidine-3-carboxamide] | ≤ 20 | 0.0398 to 0.316
10 | Cc1cccc(-c2nccc(Nc3ccnc(Nc4ccc(NC(=O)N5CCNCC5)cc4)n3)n2)n1 [Compound 228, N-(4-((4-((2-(6-methylpyridin-2-yl)pyrimidin-4-yl)amino)pyrimidin-2-yl)amino)phenyl)piperazine-1-carboxamide] | 25.1 to 158 | 0.0398 to 0.316
11 | Cc1cccc(-c2nccc(Nc3ccnc(Nc4ccc(NS(=O)(=O)C5CCNCC5)cc4)n3)n2)n1 [Compound 229, N-[4-[[4-[[2-(6-methyl-2-pyridyl)pyrimidin-4-yl]amino]pyrimidin-2-yl]amino]phenyl]piperidine-4-sulfonamide] | 25.1 to 158 | 0.0398 to 0.316
12 | Cc1cccc(-c2nccc(Nc3ccnc(Nc4ccc(C5CCNC5)cc4)n3)n2)n1 (stereo not shown) [Compound 231, N4-[2-(6-methyl-2-pyridyl)pyrimidin-4-yl]-N2-(4-pyrrolidin-3-ylphenyl)pyrimidine-2,4-diamine] | 25.1 to 158 | 0.0398 to 0.316
13 | Cc1cccc(-c2nccc(Nc3ccnc(Nc4ccc(-c5cn6c(n5)CNCC6)cc4)n3)n2)n1 [Compound 232, N4-[2-(6-methyl-2-pyridyl)pyrimidin-4-yl]-N2-[4-(5,6,7,8-tetrahydroimidazo[1,2-a]pyrazin-2-yl)phenyl]pyrimidine-2,4-diamine] | 25.1 to 158 | 0.0398 to 0.316
14 | Cc1cccc(-c2nccc(Nc3ccnc(Nc4cccc(N5CCN(C)CC5)c4)n3)n2)n1 [Compound 233, N2-[3-(4-methylpiperazin-1-yl)phenyl]-N4-[2-(6-methyl-2-pyridyl)pyrimidin-4-yl]pyrimidine-2,4-diamine] | 25.1 to 158 | 0.0398 to 0.316
15 | Cc1cccc(-c2nccc(Nc3ccnc(Nc4ccc(Br)cc4)n3)n2)n1 [Compound 234, N2-(4-bromophenyl)-N4-[2-(6-methyl-2-pyridyl)pyrimidin-4-yl]pyrimidine-2,4-diamine] | 25.1 to 158 | 3.98 to 31.6
16 | Cc1cccc(-c2nccc(Nc3ccnc(Nc4ccc(N5CCN(CC6CCC(=O)O6)CC5)cc4)n3)n2)n1 (stereo not shown) [Compound 235, 5-[[4-[4-[[4-[[2-(6-methyl-2-pyridyl)pyrimidin-4-yl]amino]pyrimidin-2-yl]amino]phenyl]piperazin-1-yl]methyl]tetrahydrofuran-2-one] | ≤ 20 | 0.0398 to 0.316
17 | COC(=O)C1CN(CCNc2ccc(Nc3nccc(Nc4ccnc(-c5cccc(C)n5)n4)n3)cc2)CCN1C (stereo not shown) [Compound 236, methyl 1-methyl-4-[2-[4-[[4-[[2-(6-methyl-2-pyridyl)pyrimidin-4-yl]amino]pyrimidin-2-yl]amino]anilino]ethyl] piperazine-2-carboxylate] | 25.1 to 158 | 0.398 to 3.16
18 | Cc1cccc(-c2nccc(Nc3ccnc(Nc4ccc(CN5CC(C(=O)O)C5)cc4)n3)n2)n1 [Compound 237, 1-[[4-[[4-[[2-(6-methyl-2-pyridyl)pyrimidin-4-yl]amino]pyrimidin-2-yl]amino]phenyl]methyl] azetidine-3-carboxylic acid] | 200 to 1260 | 0.0398 to 0.316
19 | Cc1cccc(-c2nccc(Nc3ccnc(Nc4ccc(Cl)c(CN5CCN(C)CC5)c4)n3)n2)n1 [Compound 238, N2-[4-chloro-3-[(4-methylpiperazin-1-yl)methyl]phenyl]-N4-[2-(6-methyl-2-pyridyl)pyrimidin-4-yl]pyrimidine-2,4-diamine] | 25.1 to 158 | 0.0398 to 0.316
20 | Cc1cccc(-c2nccc(Nc3ccnc(Nc4ccc(C(=O)OC5CCNCC5)s4)n3)n2)n1 [Compound 239, 4-piperidyl 5-[[4-[[2-(6-methyl-2-pyridyl)pyrimidin-4-yl]amino]pyrimidin-2-yl]amino]thiophene-2-carboxylate] | 25.1 to 158 | 0.0398 to 0.316
21 | Cc1cccc(-c2nccc(Nc3ccnc(Nc4ccc(CN5C[C@@H](C)N[C@@H](C)C5)cc4)n3)n2)n1 [Compound 240, N2-[4-[[(3R,5S)-3,5-dimethylpiperazin-1-yl]methyl]phenyl]-N4-[2-(6 methyl-2-pyridyl)pyrimidin-4-yl]pyrimidine-2,4-diamine] | 25.1 to 158 | 0.0398 to 0.316
22 | CCOC(=O)CC1CNCCN1c1ccc(Nc2nccc(Nc3ccnc(-c4cccc(C)n4)n3)n2)cc1 (stereo not shown) [Compound 241, ethyl 2-[1-[4-[[4-[[2-(6-methyl-2-pyridyl)pyrimidin-4-yl]amino]pyrimidin-2-yl]amino]phenyl]piperazin-2-yl]acetate] | 25.1 to 158 | 0.0398 to 0.316
23 | Cc1cccc(-c2nccc(Nc3ccnc(Nc4ccc(CN5CCOCC5)c(F)c4)n3)n2)n1 [Compound 242, N2-[3-fluoro-4-(morpholinomethyl)phenyl]-N4-[2-(6-methyl-2-pyridyl)pyrimidin-4-yl]pyrimidine-2,4-diamine] | 25.1 to 158 | 0.0398 to 0.316
24 | Cc1cccc(-c2nccc(Nc3ccnc(Nc4ccc(N5CCC(N(C)Cc6ccccn6)CC5)cc4)n3)n2)n1 [Compound 243, N2-[4-[4-[methyl(2-pyridylmethyl)amino]-1-piperidyl]phenyl]-N4-[2-(6-methyl-2-pyridyl)pyrimidin-4-yl]pyrimidine-2,4-diamine] | 25.1 to 158 | 0.0398 to 0.316
25 | Cc1cccc(-c2nccc(Nc3ccnc(Nc4ccc(F)c(CN5CCN(C)CC5)c4)n3)n2)n1 [Compound 244, N2-[4-fluoro-3-[(4-methylpiperazin-1-yl)methyl]phenyl]-N4-[2-(6-methyl-2-pyridyl)pyrimidin-4-yl]pyrimidine-2,4-diamine] | 25.1 to 158 | 0.0398 to 0.316
26 | Cc1cccc(-c2nccc(Nc3ccnc(Nc4cnn(C5CCNC5)c4)n3)n2)n1 (stereo not shown) [Compound 245, N4-[2-(6-methyl-2-pyridyl)pyrimidin-4-yl]-N2-(1-pyrrolidin-3-ylpyrazol-4-yl)pyrimidine-2,4-diamine] | 200 to 1260 | 0.0398 to 0.316
